Literature values, collected in patent publication US6046167A, “Peptide YY analogs” (University of Cincinnati, priority 1998, dated 2000).

System: rat small intestine
Details: voltage clamped preparations of rat small intestine; literature comparison

Substance: PYY: 36-residue peptide amide isolated originally from porcine intestine [Peptide YY]
- antisecretory potency: greater antisecretory potency than NPY
